Like-named read-outs stand apart in the source and are kept apart here.
Experiments:
SH-SY5Y cells [1] = assay: Neuroprotection against oxidative stress, H2O2, MTT
[2] = molecular target: T1, equine serum BuChE (EqBuChE) (Equus caballus, UniProt P81908); assay: biochemical; conditions: read-out: BuChE IC50 ± SD
T1 construct: equine serum BuChE (EqBuChE); from tissue; host or cells: equine serum

EeAChE = EeAChE (Electrophorus electricus, UniProt O42275); assay: Kinetic characterization of AChE inhibition (Lineweaver–Burk plot); assay type: biochemical, electric eel; conditions: Km and Vmax
Description: To obtain the mechanism of EeAChE inhibition, kinetic experiments were performed.
Kinetic characterization of AChE and BuChE was performed using the reported method with different concentrations of the substrate (S)—acetylthiocholine iodide (in range of […]) prepared in phosphate buffer (pH 8.0). […] Then, the inhibitor (14 µL) was added into the assay solution. Kinetic characterizations of the hydrolysis of acetylthiocholine […] catalyzed by AChE were done spectrophotometrically at 412 nm. A parallel control with no inhibitor in the mixture, allowed adjusting activities to be measured at various times.

[3] = molecular target: AChE-BACE-1A protein pair (Homo sapiens, UniProt P22303+P56817); assay: Yeast three-hybrid (Y3H) test, AChE-BACE-1A; conditions: 10 µM hybrid ligand, DDO/X/A agar plates
[4] = ABTS radical scavenging assay; conditions: read-out: ABTS FRS50 ± SD
SH-SY5Y cells [5] = assay: Neuroprotection against rotenone/oligomycin A, co-incubation, MTT; conditions: R/O mixture
SH-SY5Y cells [6] = assay: Neuroprotection against rotenone/oligomycin A, pre-incubation, MTT; conditions: R/O mixture, compound 0.0001 µM
[7] = pKa assay (UV spectra in buffers pH 5.6 to 12.4); assay type: physicochemical; conditions: phosphate buffers in methanol:water (1:1), pH 5.6 to 12.4, Experimental
Source text: LogP is one of properties used in Lipinski’s rule of five. Our compounds were designed as a potential drug in AD therapy. Fulfillment of Lipinski’s rule of five allows us to suppose that the compound will show adequate pharmacokinetics. […] In the chemical structure of our compound occur four nitrogen atoms with a free ion pair, which allow us to gradually ionize the whole compound at different pH value. […] Direct determination of the ratio between consecutive form of molecule allows to measure the pKa value (Figure 2). The change of distribution charge in molecule affects noticeably the change of the ultraviolet (UV) spectra. […] We used absorbance ratios and mathematical calculation allowed to estimate specific pH value for each ionized form and finally to calculate pKa values (Figure 3). The value pKa1 calculated by ChemAxon and ACD/Percepta software are close to value pKa1 obtained by our method. pKa2 value calculated by ChemAxon software and pKa2 calculated by ACD/Percepta were inflated in comparison with our experimental result pKa2 (Table 3). […]
Spectrophotometric measurement was performed in 96 wells plate by using Synergy H1 microplate reader (BioTek, Vinoosky, VT, USA) with Gen5 software (BioTek). […] Further calculations on UV spectra were performed by using mathematical ratios of absorbance 332/343 nm and 343/332 nm and according to methodology developed by Musil et al.. […]

[8] = In vitro cytotoxicity assay (MTT) on CCL-110; conditions: human, CCL-110 cells (normal human skin fibroblasts)
[9] = LogP assay (HPLC, calibration curve); assay type: physicochemical; conditions: reversed-phase HPLC, Waters Xbridge C18 column; Experimental
Description: After pKa assay we decided to use TEA because of the best properties for the assay. Coefficient of determination was over 0.96 for calibration curve (Figure 3). […] LogP values calculated by ChemAxon nad ACD/Percepta software were inflated in comparison to our experimental result (Table 3).
Methanol (POCH) was used as an organic modifier. Demineralized water was purified in our faculty. Triethylamine (TEA) (Sigma Aldrich) was dissolved in concentration 30 mM in methanol and in water. Ten various isocratic mobile phases were used in calibration and assay. The first mobile phase contained 50% methanol solution with 30 mM TEA and 50% water solution with 30 mM TEA. Each next mobile phase contained 5% more methanol solution; 95% methanol solution and 5% water solution mix was used as the last mobile phase; 30 mM triethylamine in all mobile phases allowed us to analyzed basic substances. Basic solutions were used, because a neutral form of the compounds was required in logP assay. […]
The test compound was eluted by all mobile phases and obtained retention times were used to calculate logkw value. LogP value was read from calibration curve. Obtained value was compared with calculated values by online software chemicalize.com (ChemAxon 2018) and ACD/Percepta Version 14.0.0 (Advanced Chemistry Development, Inc., Metropolitan Toronto, ON, Canada).

Aβ (1–42) = Aβ (1–42) (Homo sapiens, UniProt P05067); assay: Self-induced Aβ(1–42) aggregation, Thioflavin T assay; assay type: biochemical
Source text: Aβ(1–42) is the most amyloidogenic Aβ fragment found in the AD plaques.
Amyloid β aggregation plays a definitive role in neurodegeneration and AD progression. Thus, inhibition of the Aβ aggregation has been presented as a promising approach for the AD therapy. In order to examine the ability to inhibit Aβ aggregation spectroscopic technique which is analyse with thioflavin T have been used. We investigated the best potent inhibitor towards AChE. […] As well as the study being conducted without the presence of the inhibitor. Aβ42 was dissolved in DMSO to make 125.8 µM stock solution. Each compound (10 µL) and 10 µL of Aβ42 were added into 60 µL of phosphate buffer (PBS at pH 8.0) in a 96-well plate. After shake and incubation for 24 h at 30 °C, 20 µL of 2.5 µM ThT solution in 50 mM glycine–NaOH (pH 8.5) was added. Fluorescence excitation was measured at 446 nm with emission a wavelength of 490 nm after 5 min incubation with the dye. The reported results were obtained as the mean ± SD of triplicates of three independent experiments. […]

[10] = DPPH free-radical scavenging assay; conditions: read-out: DPPH FRS50 ± SD
[11] = Homo sapiens, SH-SY5Y, read-out: % cell viability

Sequence of Aβ (1–42) (P05067 672-713 limits assumed): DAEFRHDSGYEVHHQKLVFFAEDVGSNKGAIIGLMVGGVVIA
Sequence of EeAChE (O42275 24-633): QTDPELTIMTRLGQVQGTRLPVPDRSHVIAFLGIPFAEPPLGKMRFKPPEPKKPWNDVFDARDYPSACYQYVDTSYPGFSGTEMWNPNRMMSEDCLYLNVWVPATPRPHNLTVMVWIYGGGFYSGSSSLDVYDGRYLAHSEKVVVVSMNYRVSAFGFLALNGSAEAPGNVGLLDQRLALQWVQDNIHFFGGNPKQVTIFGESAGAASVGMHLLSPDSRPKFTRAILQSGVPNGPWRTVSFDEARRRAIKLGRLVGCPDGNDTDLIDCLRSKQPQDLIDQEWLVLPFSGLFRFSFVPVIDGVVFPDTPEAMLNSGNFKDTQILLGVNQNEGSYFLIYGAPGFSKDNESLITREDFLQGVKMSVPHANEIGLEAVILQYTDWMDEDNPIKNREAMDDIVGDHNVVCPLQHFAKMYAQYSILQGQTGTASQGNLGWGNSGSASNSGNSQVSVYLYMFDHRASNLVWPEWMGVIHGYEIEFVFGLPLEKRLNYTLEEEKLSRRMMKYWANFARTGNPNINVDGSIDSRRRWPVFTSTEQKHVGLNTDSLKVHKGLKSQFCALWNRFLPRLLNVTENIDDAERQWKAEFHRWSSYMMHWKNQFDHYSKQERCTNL
T1 sequence (P81908 whole entry): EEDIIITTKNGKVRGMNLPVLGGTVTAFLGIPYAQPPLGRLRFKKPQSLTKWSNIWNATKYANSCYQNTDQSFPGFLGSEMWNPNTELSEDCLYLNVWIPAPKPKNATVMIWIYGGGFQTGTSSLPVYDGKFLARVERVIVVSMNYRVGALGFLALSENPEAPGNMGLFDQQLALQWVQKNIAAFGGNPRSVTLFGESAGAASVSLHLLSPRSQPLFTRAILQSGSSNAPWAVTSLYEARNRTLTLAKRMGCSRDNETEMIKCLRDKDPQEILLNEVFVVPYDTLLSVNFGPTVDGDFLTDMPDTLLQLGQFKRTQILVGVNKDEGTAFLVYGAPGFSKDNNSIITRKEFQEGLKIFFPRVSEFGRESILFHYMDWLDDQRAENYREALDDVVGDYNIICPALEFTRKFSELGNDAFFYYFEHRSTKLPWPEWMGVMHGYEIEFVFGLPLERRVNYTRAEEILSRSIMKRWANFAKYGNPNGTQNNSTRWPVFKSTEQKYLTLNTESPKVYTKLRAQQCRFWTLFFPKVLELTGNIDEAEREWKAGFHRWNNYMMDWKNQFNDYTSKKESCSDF
Sequence of AChE-BACE-1A protein pair (P22303 52-577): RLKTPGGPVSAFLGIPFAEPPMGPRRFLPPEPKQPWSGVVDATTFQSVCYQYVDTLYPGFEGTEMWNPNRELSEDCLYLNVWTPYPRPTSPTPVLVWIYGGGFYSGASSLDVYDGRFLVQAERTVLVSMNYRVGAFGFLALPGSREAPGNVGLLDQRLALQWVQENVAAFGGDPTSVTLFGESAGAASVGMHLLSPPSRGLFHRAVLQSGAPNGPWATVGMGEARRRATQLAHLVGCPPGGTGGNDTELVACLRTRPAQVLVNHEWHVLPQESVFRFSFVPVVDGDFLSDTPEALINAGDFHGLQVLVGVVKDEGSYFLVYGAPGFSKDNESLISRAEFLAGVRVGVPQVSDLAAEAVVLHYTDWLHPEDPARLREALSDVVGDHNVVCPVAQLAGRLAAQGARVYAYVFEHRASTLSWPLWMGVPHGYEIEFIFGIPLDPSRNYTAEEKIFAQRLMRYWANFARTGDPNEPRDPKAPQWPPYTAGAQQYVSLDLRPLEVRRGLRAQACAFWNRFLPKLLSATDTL
Sequence of AChE-BACE-1A protein pair (P56817 46-457): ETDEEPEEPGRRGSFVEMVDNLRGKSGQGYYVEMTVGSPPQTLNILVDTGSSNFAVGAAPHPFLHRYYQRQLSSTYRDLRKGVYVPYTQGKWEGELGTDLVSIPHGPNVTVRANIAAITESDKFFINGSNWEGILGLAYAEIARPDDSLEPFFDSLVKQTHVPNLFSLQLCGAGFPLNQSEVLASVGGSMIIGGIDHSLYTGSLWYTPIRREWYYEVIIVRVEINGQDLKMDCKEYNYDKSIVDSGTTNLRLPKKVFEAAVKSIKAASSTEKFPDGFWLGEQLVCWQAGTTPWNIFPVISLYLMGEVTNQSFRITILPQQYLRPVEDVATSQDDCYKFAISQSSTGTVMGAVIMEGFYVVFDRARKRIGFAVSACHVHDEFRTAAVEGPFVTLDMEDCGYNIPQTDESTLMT

## O=C(NCCCCCCNc1c2c(nc3ccccc13)CCC2)c1ccc(Cl)nc1 [Compound 3e]
SH-SY5Y cells [1]; H2O2 100 µM, compound 10–0.01 µM
  neuroprotective activity (in words): at none concentration, 3e had neuroprotective activity
SH-SY5Y cells [1]; [11]
  viability at 0.01 µM: 60.4%
  viability at 0.1 µM: 29.2%
  viability at 1 µM: 18.4%
  viability at 10 µM: 14.3%
[2]
  IC50: 0.153 ± 0.02 µM
EeAChE
  type of EeAChE inhibition: mixed inhibition
[3]
  hybrid ligand-induced interaction AChE-BACE-1A: Blue colonies, indicating putative interaction
[4]
  EC50: > 20000 µM
SH-SY5Y cells [5]
  neuroprotective properties (in words): did not have neuroprotective properties at any concentrations
SH-SY5Y cells [6]
  neuroprotection: 3.98%
[7]; read-out: pKa1
  pKa: 8.53
[7]; read-out: pKa2
  pKa: 11.3
[8]
  IC50 at 48 h: 0.638 µM
[9]
  chromatographic logP: 3.99
In vitro
  viability at 24 h, 0.1 µM: 100%
  viability at 24 h, 1 µM: 99.7%
  viability at 24 h, 10 µM: 93%
Aβ (1–42)
  IC50: 15 ± 0.6 µM
Aβ (1–42); 10 µM compound
  inhibition at 10 µM: 40 ± 4.8%
Aβ (1–42); 25 µM compound
  inhibition at 25 µM: 63 ± 4.2%
Aβ (1–42); 50 µM compound
  inhibition at 50 µM: 72 ± 2.9%
Aβ (1–42); 100 µM compound
  inhibition at 100 µM: 79 ± 3.2%
[10]
  EC50: > 20000 µM
